In series [1] the target is T1, rSERT (Rattus norvegicus, UniProt P31652).
T1 construct: gene Slc6a4; full-length, stably expressed in HEK 293 cells (Vienna, 'cell line 3')
As to the kind of experiment: saturation uptake, adherent HEK […] cells. Format: cell-based. The settings on record: cell line 3; labelled compound, 200 nM [3H]-5-HT diluted with unlabelled; KHB pH 7.3, room temperature, 1 min; read-out: Km ± SD.

Series [2] addresses T1, rSERT. As to the kind of experiment: [3H]-CFT saturation binding, adherent HEK […] cells. The settings on record: read-out: Kd ± SD. Format: cell-based.
Another series concerns the target T2, rNET (Rattus norvegicus, UniProt Q63380).
T2 construct: gene Slc6a2; full-length, stably expressed in HEK 293 cells (Vienna, 'cell line 3')
As to the kind of experiment: [3H]-CFT saturation binding, adherent HEK […] cells. It counts as cell-based. The settings on record: read-out: Kd ± SD.

The target of the next series is T3, hSERT (Homo sapiens, UniProt P31645).
T3 construct: gene SLC6A4; full-length, stably expressed in HEK 293 cells (Basel, 'cell line 2')
T3 sequence (P31645 whole entry): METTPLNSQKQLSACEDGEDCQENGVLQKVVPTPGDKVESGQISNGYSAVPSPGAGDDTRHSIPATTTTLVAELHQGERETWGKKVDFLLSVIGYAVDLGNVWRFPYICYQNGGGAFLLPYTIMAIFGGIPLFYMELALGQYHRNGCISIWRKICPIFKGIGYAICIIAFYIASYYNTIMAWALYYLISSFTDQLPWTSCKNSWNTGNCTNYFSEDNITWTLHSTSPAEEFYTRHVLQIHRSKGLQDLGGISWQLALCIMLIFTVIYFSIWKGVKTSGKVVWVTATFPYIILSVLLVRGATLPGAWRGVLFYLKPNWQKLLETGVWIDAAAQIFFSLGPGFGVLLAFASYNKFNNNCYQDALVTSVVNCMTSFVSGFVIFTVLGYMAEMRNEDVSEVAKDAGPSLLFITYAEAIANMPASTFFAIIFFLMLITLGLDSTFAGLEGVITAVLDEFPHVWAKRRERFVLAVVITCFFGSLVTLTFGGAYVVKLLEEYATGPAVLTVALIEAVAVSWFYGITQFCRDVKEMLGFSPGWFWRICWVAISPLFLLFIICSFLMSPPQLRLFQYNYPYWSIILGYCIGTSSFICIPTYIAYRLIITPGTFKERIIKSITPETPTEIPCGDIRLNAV
The experiment in a line: [3H]-CFT saturation binding, adherent HEK […] cells. It counts as cell-based. The settings on record: read-out: Kd ± SD.

For the next series, the target named is T4, hNET (Homo sapiens, UniProt P23975).
T4 construct: gene SLC6A2; full-length, stably expressed in HEK 293 cells (Basel, 'cell line 2')
T4 sequence (P23975 whole entry): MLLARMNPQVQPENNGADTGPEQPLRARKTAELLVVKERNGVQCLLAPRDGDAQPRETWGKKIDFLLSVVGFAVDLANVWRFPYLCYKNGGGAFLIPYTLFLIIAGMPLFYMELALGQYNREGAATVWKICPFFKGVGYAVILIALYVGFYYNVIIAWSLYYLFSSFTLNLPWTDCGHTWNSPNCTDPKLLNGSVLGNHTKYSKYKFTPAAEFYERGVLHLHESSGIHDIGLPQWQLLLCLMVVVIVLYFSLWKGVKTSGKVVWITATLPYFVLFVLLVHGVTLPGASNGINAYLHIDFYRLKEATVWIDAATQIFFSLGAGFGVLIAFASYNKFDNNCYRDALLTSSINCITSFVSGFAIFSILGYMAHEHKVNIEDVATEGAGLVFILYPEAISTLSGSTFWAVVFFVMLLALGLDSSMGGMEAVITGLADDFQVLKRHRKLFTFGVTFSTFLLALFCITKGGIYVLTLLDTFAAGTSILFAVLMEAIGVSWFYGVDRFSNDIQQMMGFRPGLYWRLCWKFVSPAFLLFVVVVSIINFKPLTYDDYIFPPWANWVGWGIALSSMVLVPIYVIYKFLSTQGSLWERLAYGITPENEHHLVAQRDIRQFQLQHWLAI
As to the kind of experiment: [3H]-CFT saturation binding, adherent HEK […] cells. It counts as cell-based. The settings on record: read-out: Kd ± SD.

The subject of the next series is T5, NCCc1c[nH]c2ccc(O)cc12.
T5 construct: full-length, stably expressed in HEK 293 cells (Basel, 'cell line 2')
The experiment in a line: cells, lysate or membranes. It counts as cell-based, Homo sapiens. To be noted: cell line 2, labelled compound, 200 nM [3H]-5-HT diluted with unlabelled, KHB pH 7.3, room temperature, 1 min.

Substrate in series [3]: NCCc1ccc(O)c(O)c1
The experiment in a line: cells, lysate or membranes. It counts as cell-based, Rattus norvegicus. To be noted: cell line 3, labelled compound, 200 nM [3H]-dopamine diluted with unlabelled, KHB pH 7.3, room temperature, 1 min.

Substrate in series [4]: NCCc1ccc(O)c(O)c1
As to the kind of experiment: cells, lysate or membranes. The settings on record: cell line 2, labelled compound, 200 nM [3H]-dopamine diluted with unlabelled, KHB pH 7.3, room temperature, 1 min.

T1 sequence (P31652 whole entry): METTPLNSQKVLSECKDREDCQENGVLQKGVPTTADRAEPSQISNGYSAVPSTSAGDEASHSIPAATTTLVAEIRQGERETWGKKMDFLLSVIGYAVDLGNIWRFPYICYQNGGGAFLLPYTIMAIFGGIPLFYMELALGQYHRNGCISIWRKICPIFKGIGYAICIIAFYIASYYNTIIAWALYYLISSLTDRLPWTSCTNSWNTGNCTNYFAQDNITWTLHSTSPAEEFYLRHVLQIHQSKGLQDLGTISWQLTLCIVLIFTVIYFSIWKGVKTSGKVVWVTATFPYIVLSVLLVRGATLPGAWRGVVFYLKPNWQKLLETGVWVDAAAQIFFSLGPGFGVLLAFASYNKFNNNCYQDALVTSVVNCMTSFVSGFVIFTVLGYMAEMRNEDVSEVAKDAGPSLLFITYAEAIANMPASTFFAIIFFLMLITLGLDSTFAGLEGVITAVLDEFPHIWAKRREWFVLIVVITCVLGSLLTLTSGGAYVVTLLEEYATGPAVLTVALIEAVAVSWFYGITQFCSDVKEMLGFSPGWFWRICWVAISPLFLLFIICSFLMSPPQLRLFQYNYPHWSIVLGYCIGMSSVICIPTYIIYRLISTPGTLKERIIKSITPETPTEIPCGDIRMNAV
T2 sequence (Q63380 1-617): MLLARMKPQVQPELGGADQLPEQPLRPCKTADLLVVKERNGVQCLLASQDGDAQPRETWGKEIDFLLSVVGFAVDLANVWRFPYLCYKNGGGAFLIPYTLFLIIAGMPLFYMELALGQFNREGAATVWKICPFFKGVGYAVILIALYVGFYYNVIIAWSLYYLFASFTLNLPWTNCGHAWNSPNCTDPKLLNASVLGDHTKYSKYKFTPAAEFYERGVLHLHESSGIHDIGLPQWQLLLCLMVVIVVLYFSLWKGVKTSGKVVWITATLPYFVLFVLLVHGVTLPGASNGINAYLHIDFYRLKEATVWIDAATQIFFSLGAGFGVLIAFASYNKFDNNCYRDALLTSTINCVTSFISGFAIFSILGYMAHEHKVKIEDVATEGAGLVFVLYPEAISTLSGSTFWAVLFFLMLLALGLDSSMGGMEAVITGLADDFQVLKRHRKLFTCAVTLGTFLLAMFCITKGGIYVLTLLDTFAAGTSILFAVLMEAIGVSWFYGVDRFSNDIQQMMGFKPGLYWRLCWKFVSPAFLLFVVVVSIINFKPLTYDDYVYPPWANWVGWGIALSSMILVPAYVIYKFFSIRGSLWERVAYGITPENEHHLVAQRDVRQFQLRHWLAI

One may read the Km as the substrate concentration at which the rate is half of its maximum. On to `NCCc1c[nH]c2ccc(O)cc12` [5-HT], for which the Km at rSERT [1] is 3.4 ± 1.5 µM.
What is called Kd is the constant that tells how readily two partners part at equilibrium. For `COC(=O)[C@H]1[C@@H](c2ccc(F)cc2)C[C@@H]2CC[C@H]1N2C` [CFT, 2-β-carbomethoxy-3-β-(4-fluorophenyl)tropane], the Kd on rSERT [2] was determined as 1130 ± 70 nM; at rNET, 130 ± 70 nM; on hSERT, 1200 ± 400 nM; at hNET, 70 ± 20 nM.
On to hSERT (Homo sapiens), for which the Km in the series with NCCc1c[nH]c2ccc(O)cc12 is 4.1 ± 1.0 µM.

B1: rDAT (Rattus norvegicus) (protein)
chain: MSKSKCSVGPMSSVVAPAKESNAVGPREVELILVKEQNGVQLTNSTLINPPQTPVEAQERETWSKKIDFLLSVIGFAVDLANVWRFPYLCYKNGGGAFLVPYLLFMVIAGMPLFYMELALGQFNREGAAGVWKICPVLKGVGFTVILISFYVGFFYNVIIAWALHYFFSSFTMDLPWIHCNNTWNSPNCSDAHASNSSDGLGLNDTFGTTPAAEYFERGVLHLHQSRGIDDLGPPRWQLTACLVLVIVLLYFSLWKGVKTSGKVVWITATMPYVVLTALLLRGVTLPGAMDGIRAYLSVDFYRLCEASVWIDAATQVCFSLGVGFGVLIAFSSYNKFTNNCYRDAIITTSINSLTSFSSGFVVFSFLGYMAQKHNVPIRDVATDGPGLIFIIYPEAIATLPLSSAWAAVFFLMLLTLGIDSAMGGMESVITGLVDEFQLLHRHRELFTLGIVLATFLLSLFCVTNGGIYVFTLLDHFAAGTSILFGVLIEAIGVAWFYGVQQFSDDIKQMTGQRPNLYWRLCWKLVSPCFLLYVVVVSIVTFRPPHYGAYIFPDWANALGWIIATSSMAMVPIYATYKFCSLPGSFREKLAYAITPEKDHQLVDRGEVRQFTLRHWLLL
notes: full-length, stably expressed in HEK 293 cells (Vienna, 'cell line 3')
Consider B1, for which, in series [3], the Km was 8.8 ± 3.9 µM.

B2: hDAT (Homo sapiens) (protein)
chain: MSKSKCSVGLMSSVVAPAKEPNAVGPKEVELILVKEQNGVQLTSSTLTNPRQSPVEAQDRETWGKKIDFLLSVIGFAVDLANVWRFPYLCYKNGGGAFLVPYLLFMVIAGMPLFYMELALGQFNREGAAGVWKICPILKGVGFTVILISLYVGFFYNVIIAWALHYLFSSFTTELPWIHCNNSWNSPNCSDAHPGDSSGDSSGLNDTFGTTPAAEYFERGVLHLHQSHGIDDLGPPRWQLTACLVLVIVLLYFSLWKGVKTSGKVVWITATMPYVVLTALLLRGVTLPGAIDGIRAYLSVDFYRLCEASVWIDAATQVCFSLGVGFGVLIAFSSYNKFTNNCYRDAIVTTSINSLTSFSSGFVVFSFLGYMAQKHSVPIGDVAKDGPGLIFIIYPEAIATLPLSSAWAVVFFIMLLTLGIDSAMGGMESVITGLIDEFQLLHRHRELFTLFIVLATFLLSLFCVTNGGIYVFTLLDHFAAGTSILFGVLIEAIGVAWFYGVGQFSDDIQQMTGQRPSLYWRLCWKLVSPCFLLFVVVVSIVTFRPPHYGAYIFPDWANALGWVIATSSMAMVPIYAAYKFCSLPGSFREKLAYAIAPEKDRELVDRGEVRQFTLRHWLKV
Turning to B2, the Km in series [4] worked out at 5.5 ± 0.8 µM.

The values above are taken from PMC7248194, “Cell-Based Radiotracer Binding and Uptake Inhibition Assays: A Comparison of In Vitro Methods to Assess the Potency of Drugs That Target Monoamine Transporters” (Frontiers in Pharmacology, 2020).
